Measurements published in paper PMC8456950, “Structure‐Guided Design of G‐Protein‐Coupled Receptor Polypharmacology” (Angewandte Chemie (International Ed. in English), 2021).
“Also recorded” adds a separate entry of the source.

System: unilaterally 6-OHDA lesioned rats
Experiment: Rotation test in unilaterally 6-OHDA lesioned rats (model of Parkinsonism)
Format: in vivo
Experimental: Evaluation of compound 30 in rodent model of Parkinsonism. Male Sprague Dawley rats (150-200 g) were housed in air-conditioned rooms (12h dark/light cycle) at 20°C and a humidity of 53%. Experiments were performed in agreement with the European Communities Council Directive of 24 November 1986 (86/609/EEC) on the ethical use of animals and were approved by the local ethical committee (Stockholm North Ethical Committee, N105/16). Rats were anesthetized with ketamine (100 mg/kg, IP; Intervet)/xylazine (5 mg/kg, IP; Bayer, Kiel, Germany), pretreated with desipramine (25 mg/kg, IP; Sigma, St Louis, MO, USA)/pargyline (5 mg/kg, IP; Sigma), placed in a stereotaxi c instrument and injected with 6-OHDA (2.5 µl of a 5mg/ml solution; Sigma) into the median forebrain bundle (MFB) of the right hemisphere (AP -2.8 mm, ML -2.0 mm and V -9.0 mm). Two weeks after the unilateral 6-OHDA lesion, rats were injected with apomorphine (1 mg/kg, IP; Sigma) and their contralateral rotations were measured to determine the degree of nigrostriatal denervation. Four weeks after surgery, rats that were divided into two group according to the number of apomorphine-induced rotations. The rats were treated either with DMSO(17%)/saline (n=6) or compound 30 (n=7, 24 mg/kg, IP) dissolved in DMSO(17%)/saline. The number of rotations was calculated automatically with Noldus EthoVision XT11. 5 Software for 30 min following the drug administration. The two […]
groups were then compared by using a Mann-Whitney test. A second set of independent experiments using a new set of rats were carried out using the same protocol to assess the involvement of the D2R in the observed effect. In this case, rats were divided into four groups according to the number of apomorphine-induced rotations. The rats were treated with either DMSO(17%)/saline (n=6), raclopride (n=7, 2mg/kg, IP) dissolved in DMSO(17%)/saline, compound 30 (n=7, 24 mg/kg, IP) dissolved in DMSO(17%)/saline or the combination of raclopride (30 min pretreatment) and compound 30 (n=7). The rotation test was then performed for 30 min. […]

CCCN(CCCCC(=O)Nc1nc2c(OC)ccc(OC)c2s1)C1Cc2ccccc2C1 [Compound 30]
contralateral rotations (net rotations, 30 min) versus control group (24 mg kg^−1 IP, 6-OHDA lesioned rats, p<0.01 first set, p<0.05 independent second set): significantly higher number of contralateral rotations; also recorded: significant increase of contralateral rotations | effect on contralateral rotations in combination with D2 antagonist raclopride (30 at 24 mg kg^−1 IP with raclopride 2 mg kg^−1 IP (30 min pretreatment)): reversed
